# Tested on: Plasmodium berghei
# Test: Antimalarial activity against Plasmodium berghei
# Format: functional
row,SMILES,log(1/C)
1,CCCCN(CCCC)CC(O)c1cc2cccc(Br)c2c2cc(C(F)(F)F)ccc12 (stereo not drawn),3.52
2,CCCCN(CCCC)CC(O)c1cc2c(Cl)cc(Cl)cc2c2cc(C(F)(F)F)ccc12 (stereo not drawn),4.29
3,CCCN(CCC)CC(O)c1cc2cc(Br)ccc2c2cc(Br)ccc12 (stereo not drawn),4.27
4,CCCCCCN(CCCCCC)CC(O)c1cc(-c2ccc(OC)c(OC)c2)nc2ccc(Cl)cc12 (stereo not drawn),3.32
5,OC(CNC1CCCCC1)c1cc2ccccc2c2cc(OC(F)(F)F)ccc12 (stereo not drawn),3.34
6,OC(CC1CCCCN1)c1cc2cc(Cl)c(Cl)cc2c2cc(C(F)(F)F)ccc12 (stereo not drawn),4.19
7,CCNCC(O)c1cc(-c2ccc(C(F)(F)F)cc2)nc(-c2ccc(C(F)(F)F)cc2)c1 (stereo not drawn),3.72
8,CN(C)CC(O)c1cc2cc(C(F)(F)F)cc(C(F)(F)F)c2c2ccccc12 (stereo not drawn),3.94
9,CCN(CC)CC(O)c1cc(-c2ccc(Cl)cc2)nc(-c2ccc(Cl)cc2)c1 (stereo not drawn),3.19
10,COc1cc(C(F)(F)F)c2nc(C(F)(F)F)cc(C(O)CC3CCCCN3)c2c1 (stereo not drawn),3.98
11,CCCCCCCN(CCCCCCC)CC(O)c1cccc2c1ccc1ccc(C(F)(F)F)cc12 (stereo not drawn),2.34
12,CCCCN(CCCC)CC(O)c1cc(/C=C/c2ccc(Cl)cc2)nc(/C=C/c2ccc(Cl)cc2)c1 (stereo not drawn),4.18
13,OC(CC1CCCCN1)c1cc2ccc(Cl)c(Cl)c2c2cc(C(F)(F)F)ccc12 (stereo not drawn),4.4
14,CCCCN(CCCC)CC(O)c1cc(-c2ccc(Cl)cc2)nc2ccccc12 (stereo not drawn),2.73
15,CCCCN(CCCC)CC(O)c1c2ccccc2cc2cc(Cl)c(Cl)cc12 (stereo not drawn),2.89
16,OC(CC1CCCCN1)c1cc2cc(C(F)(F)F)ccc2c2ccccc12 (stereo not drawn),4.39
17,CCCCN(CCCC)CC(O)c1cc(Oc2ccc(Cl)c(Cl)c2)cc2c(Cl)cc(Cl)cc12 (stereo not drawn),2.49
18,CCCCN(CCCC)CC(O)c1cc2cc(Cl)c(Cl)cc2c2c(Cl)c(Cl)ccc12 (stereo not drawn),4.18
19,CCCCN(CCCC)CC(O)c1cc(C(C)(C)C)nc2ccc(C)cc12 (stereo not drawn),2.53
20,CCCCN(CCCC)CC(O)c1cc2ccc(C(F)(F)F)cc2c2ccccc12 (stereo not drawn),2.8
21,OC(CC1CCCCN1)c1cc2cc(C(F)(F)F)ccc2c2ccc(Cl)cc12 (stereo not drawn),4.19
22,CCCCCCCN(CCCCCCC)CC(O)c1cc2ccccc2c2cc(Cl)ccc12 (stereo not drawn),2.59
23,CCCCN(CCCC)CC(O)c1cc(Cc2ccccc2)nc2c(Cl)cc(Cl)cc12 (stereo not drawn),2.6
24,CCN(CC)CC(O)c1cc(-c2ccc(OC)c(OC)c2)nc2cc(Cl)ccc12 (stereo not drawn),2.81
25,CCCC[N+]([O-])(CCCC)CC(O)c1cc(-c2ccc(Cl)c(Cl)c2)nc(-c2ccc(Cl)c(Cl)c2)c1 (stereo not drawn),2.72

row,SMILES,log(1/C)
1,CCCCCCCN(CCCCCCC)CC(O)c1c(OC)c2cc(Br)ccc2c2ccc(Br)cc12 (stereo not drawn),3.35
2,CCCCN(CCCC)CC(O)c1c(C)c(-c2ccc(Cl)cc2Cl)nc2c(Cl)cc(Cl)cc12 (stereo not drawn),3.15
3,CCCCN(CCCC)CC(O)c1cc(Cl)cc2cc3ccccc3cc12 (stereo not drawn),2.72
4,CCCCCCCCN(CCCCCCCC)CC(O)c1cc(-c2ccc(CC)c(CC)c2)cc2ccc(C)cc12 (stereo not drawn),3.15
5,CCCCCCCN(CCCCCCC)CC(O)c1cc(-c2ccc(Cl)cc2)cc2cc(Cl)c(OC)cc12 (stereo not drawn),3.31
6,CCCCNCCC(O)c1cc2c(Cl)cc(Cl)cc2c2cc(C(F)(F)F)ccc12 (stereo not drawn),4.62
7,CCCCN(CCCC)CC(O)c1cc2cc(S(C)(=O)=O)ccc2c2cc(Cl)c(Cl)cc12 (stereo not drawn),3.74
8,CCCCN(CCCC)CC(O)c1cc(-c2cccs2)nc2cccc(Br)c12 (stereo not drawn),3.06
9,CCCCN(CCCC)CC(O)c1cc2cc(Cl)c(Cl)cc2c2cc(Cl)c(Cl)cc12 (stereo not drawn),4.18
10,CCCCN(CCCC)CC(O)c1ccc(Cl)c2ncccc12 (stereo not drawn),2.16
11,CCCCCCCN(CCCCCCC)CC(O)c1cc2ccccc2c2ncccc12 (stereo not drawn),2.25
12,COc1ccc(OC)c2c(C(O)CNC34CC5CC(CC(C5)C3)C4)cc(-c3ccc(Cl)cc3)nc12 (stereo not drawn),2.48
13,CCCCN(CCCC)CC(O)c1cc(-c2ccc(C(F)(F)F)cc2)nc(-c2ccc(C(F)(F)F)cc2)c1.O=C(O)CCC(=O)O (stereo not drawn),4.23
14,OC(CCNC1CCCCC1)c1cc2ccc(C(F)(F)F)cc2c2cc(C(F)(F)F)ccc12 (stereo not drawn),4.53
15,COc1ccc(-c2cc(C(O)CC3CCCCN3)c3cc(C)ccc3n2)cc1 (stereo not drawn),3
16,OC(CC1CCCCN1)c1cc2ccc(C(F)(F)F)cc2c2c(Cl)cc(Cl)cc12 (stereo not drawn),4.3
17,CCCCN(CCCC)CC(O)c1cc(-c2ccc(C(F)(F)F)cc2)nc(-c2ccc(Cl)c(Cl)c2)c1 (stereo not drawn),3.16
18,CCCCCCCN(CCCCCCC)CC(O)c1cc2ccccc2c2ccc3ccccc3c12 (stereo not drawn),3.25
19,CCCCN(CCCC)CC(O)c1cc(-c2ccccc2)nc2ccc(OC)cc12 (stereo not drawn),2.89
20,CCCCCCN(CCCCCC)CC(O)c1cc(-c2ccc(OC)cc2)nc2cc(Cl)c(OC)cc12 (stereo not drawn),3.38
21,CCCCN(CCCC)CC(O)c1cc(C(C)(C)C)nc2c1ccc1ccccc12 (stereo not drawn),2.65
22,CCCCCCN(CCCCCC)CC(O)c1cc(-c2ccc(Cl)cc2)nc2cc(Cl)c(OC)cc12 (stereo not drawn),3.07
23,CCN(CC)CC(O)c1ccnc2cc(Cl)ccc12 (stereo not drawn),3.03
24,CCCCCCCN(CCCCCCC)CC(O)c1cc2ccc(Cl)cc2c2cc(OC)ccc12 (stereo not drawn),2.98
25,OC(CC1CCCCN1)c1cc2cc(Cl)ccc2c2ccccc12 (stereo not drawn),2.56

row,SMILES,log(1/C)
1,CCCCN(CCCC)CC(O)c1cc(-c2ccc(O)cc2)nc2c(Cl)cc(Cl)cc12 (stereo not drawn),2.66
2,OC(CC1CCCCN1)c1cc(-c2ccccc2)nc2c(C(F)(F)F)cccc12 (stereo not drawn),3.68
3,CCCCNCC(O)c1cc2c(Cl)cc(Cl)cc2c2cc(C(F)(F)F)ccc12 (stereo not drawn),4.48
4,OC(CC1CCCCN1)c1cc(Oc2ccc(Cl)c(Cl)c2)nc2c(Cl)cc(Cl)cc12 (stereo not drawn),4.1
5,CCCCN1CCCCC1CC(O)c1cc2ccccc2c2cc(Br)ccc12 (stereo not drawn),3.22
6,OC(C[N+]12CCC(CC1)CC2)c1cc(-c2ccc(Cl)cc2)nc(-c2ccc(Cl)cc2)c1 (stereo not drawn),3.21
7,OC(CCC1CCCCN1)c1cc2ccc(C(F)(F)F)cc2c2cc(C(F)(F)F)ccc12 (stereo not drawn),4.11
8,CCCCN(CCCC)CC(O)c1cc2cc(Br)c(Br)cc2c2cc(C(F)(F)F)ccc12 (stereo not drawn),4.31
9,CCCCN(CCCC)CC(O)c1c2ccccc2c(Br)c2ccccc12 (stereo not drawn),2.88
10,CCCCN(CCCC)CC(O)c1cc(-c2ccc(Cl)c(Cl)c2)cc2cc(Cl)c(OC)cc12 (stereo not drawn),3.06
11,CCCCNCC(O)c1cc(-c2ccccc2C(F)(F)F)nc(C(F)(F)F)c1 (stereo not drawn),3.78
12,CCCCCCN(CCCCCC)CC(O)c1cc(-c2cccc(C(F)(F)F)c2)nc2c(Cl)cc(Cl)cc12 (stereo not drawn),3.32
13,CCCCN(CCCC)CC(O)c1cc2c(Cl)cc(Cl)cc2c2cc(Cl)sc12 (stereo not drawn),3.53
14,CCCCN(CCCC)CC(O)c1ccc(Cl)c2cc3cccc(Cl)c3cc12 (stereo not drawn),3.39
15,CCCCN(CCCC)CC(O)c1cc(OCC)nc2ccccc12 (stereo not drawn),2.24
16,CCCCN(CCCC)CC(O)c1cc(-c2ccc(Cl)cc2)nc2c(OC)ccc(OC)c12 (stereo not drawn),2.52
17,CCCCN(CCC)CC(O)c1ccc2cc3ccccc3cc2c1 (stereo not drawn),2.49
18,CCCCNCC(O)c1cc(-c2cccc(C(F)(F)F)c2)nc(-c2cccc(C(F)(F)F)c2)c1 (stereo not drawn),3.94
19,CCCCCCCN(CCCCCCC)CC(O)c1cc2ccccc2c2c(Cl)cccc12 (stereo not drawn),3.09
20,CCCCN(CCCC)CC(O)c1cccc2c1cc(Cl)c1ccccc12 (stereo not drawn),2.26
21,OC(CC1CCCCN1)c1cc2cccc(C(F)(F)F)c2c2ccccc12 (stereo not drawn),3.62
22,CCCN(CCC)CC(O)c1cc2c(Cl)cc(Cl)cc2c2cc(Cl)ccc12 (stereo not drawn),4.19
23,OC(CC1CCCCN1)c1cc2cc(Cl)ccc2c2cc(C(F)(F)F)ccc12 (stereo not drawn),4.07
24,CCCNCCC(O)c1cc(C(F)(F)F)nc2c(C(F)(F)F)cccc12 (stereo not drawn),2.82
25,CCCCN(CCCC)CC(O)c1cc2ccc(Cl)cc2c2cc(Cl)ccc12 (stereo not drawn),3.79

row,SMILES,log(1/C)
1,CCCCN(CCCC)CC(O)c1cc2cc(Cl)ccc2c2c(Cl)cc(Cl)cc12 (stereo not drawn),3.91
2,OC(CCC1CCCCN1)c1cc2ccc(Cl)cc2c2cc(Cl)ccc12 (stereo not drawn),3.89
3,CCCCN(CCCC)CC(O)c1cc(-c2ccc(OC)cc2)nc(-c2ccc(Cl)c(Cl)c2)c1 (stereo not drawn),2.68
4,CCCC(CCC)NCC(O)c1cc(-c2ccc(C(F)(F)F)cc2)nc(C(F)(F)F)c1 (stereo not drawn),4.47
5,CCCCCCCN(CCCCCCC)CC(O)c1cc2ccc(C(F)(F)F)cc2c2cc(C(F)(F)F)ccc12 (stereo not drawn),3.89
6,CCCCN(CCCC)CC(O)c1cccc2ccc3cccc(Br)c3c12 (stereo not drawn),2.23
7,CCCCCCCN(CCCCCCC)CC(O)c1c2ccccc2c(Cl)c2ccccc12 (stereo not drawn),3.7
8,CCCCNCC(O)c1cc2ccc(C(F)(F)F)cc2c2cc(C(F)(F)F)ccc12 (stereo not drawn),4.11
9,CCCCCCN(CCCCCC)CC(O)c1cc(-c2ccc(Cl)cc2)nc2c(C)c(Cl)ccc12 (stereo not drawn),3.85
10,CCCCN(CCCC)CC(O)c1cc(-c2ccc(Cl)cc2)nc(-c2ccc(Br)cc2)c1 (stereo not drawn),3.36
11,Cc1cc(C)c2cc(C(O)CC3CCCCN3)c3ccc(C(F)(F)F)cc3c2c1 (stereo not drawn),3.25
12,CCCCCCCN(CCCCCCC)CC(O)c1cc2ccccc2c2cc(Br)ccc12.O=C(O)CCC(=O)O (stereo not drawn),3.52
13,CCCCN(CCCC)CC(O)c1cc(-c2ccc(F)cc2)nc2c(Cl)cc(Cl)cc12 (stereo not drawn),3.98
14,CCCCNCC(O)c1cc2ccc(C(F)(F)F)cc2c2ccsc12 (stereo not drawn),2.51
15,CCCC(CCC)NCC(O)c1cc(-c2ccc(Cl)cc2)nc(-c2ccc(Cl)cc2)c1 (stereo not drawn),4.13
16,CCCCCCCN(CCCCCCC)CC(O)c1cc(-c2ccc(Cl)cc2)cc2ccccc12 (stereo not drawn),3.35
17,OC(CC1CCCCN1)c1cc(-c2ccccc2)nc2ccccc12 (stereo not drawn),2.37
18,CCCCNCC(O)c1cc(-c2ccc(C(F)(F)F)cc2)nc(-c2ccc(C(F)(F)F)cc2)c1 (stereo not drawn),4.16
19,OC(CN1CCOCC1)c1cc(-c2ccccc2)nc2c(Cl)cc(Cl)cc12 (stereo not drawn),2.23
20,OC(CC1CCCCN1)c1cc2cc(Cl)cc(Cl)c2c2cc(Cl)ccc12 (stereo not drawn),4.46
21,CCCCN(CCCC)CC(O)c1cc(C23CC4CC(CC(C4)C2)C3)nc2c(Cl)cc(Cl)cc12 (stereo not drawn),3.29
22,CCCCCCN(CCCCCC)CC(O)c1cccc2ccc3cccc(Br)c3c12 (stereo not drawn),2.39
23,CCCCN(CCCC)CC(O)c1cc(Oc2ccc(Cl)cc2)c(Br)c2cc(Cl)ccc12 (stereo not drawn),2.62
